Test system: human (tumor) Hif2α (EPAS1) mRNA
Experiment: Hif2α knockdown in orthotopic RCC tumor bearing mice, single injection of RNAi trigger-delivery polymer conjugate, RT-qPCR (Table 7)
Format: in vivo
Details: single tail vein injection, relative to isotonic glucose
Summary of the method: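 Female athymic nude mice carried orthotopic A498-SEAP ccRCC kidney tumours, used 5–6 weeks after implantation. They received one tail-vein injection of RGD-targeted Hif2α RNAi trigger–polymer conjugate or isotonic glucose. Tumour Hif2α mRNA was measured by TaqMan RT-qPCR normalised to CycA (ΔΔCT) and expressed relative to glucose-treated mice.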

[1] = RNAi trigger 100 μg, polymer 100A 250 μg
[2] = RNAi trigger 100 μg, polymer 064 250 μg

Substance | Relative Expression day 4 (Hif2α mRNA in kidney tumor) [1] | Relative Expression day 4 (Hif2α mRNA in kidney tumor) [2] | also measured
AD01654 (antisense TUUCAUGAAAUCGUUACGUTT; sense ACGUAACGAUUUCAUGAAA; Hif2alpha RNAi agent antisense strand; modified_base 2,4,6,8,10,13,14,16,18 /mod_base = “2′-deoxy-2′-fluoro corresponding nucleoside”; modified_base 3,5,7,9,11,12,15,17,19 /mod_base = “2′-O-methyl corresponding nucleoside”; modified_base 2,21 /mod_base = “5′-phosphorothioate corresponding nucleotide”; Hif2alpha RNAi agent sense strand; modified_base 1,3,5,8,9,11,13,15,17,19 /mod_base = “2′-deoxy-2′-fluoro corresponding nucleoside”; modified_base 2,4,6,7,10,12,14,16,18 /mod_base = “2′-O-methyl corresponding nucleoside”; modified_base 2 /mod_base = “5′-phosphorothioate corresponding nucleotide) | 0.185 |  | 
AD01655 (antisense TUUCAUGAAAUCGUUACGUTT; sense ACGUAACGAUUUCAUGAAAT; Hif2alpha RNAi agent antisense strand; modified_base 2,4,6,8,10,13,14,16,18 /mod_base = “2′-deoxy-2′-fluoro corresponding nucleoside”; modified_base 3,5,7,9,11,12,15,17,19 /mod_base = “2′-O-methyl corresponding nucleoside”; modified_base 2,21 /mod_base = “5′-phosphorothioate corresponding nucleotide”; Hif2alpha RNAi agent sense strand; modified_base 1,3,5,8,9,11,13,15,17,19 /mod_base = “2′-deoxy-2′-fluoro corresponding nucleoside”; modified_base 2,4,6,7,10,12,14,16,18 /mod_base = “2′-O-methyl corresponding nucleoside”; modified_base 20 /mod_base = “3′-3′-linked nucleotide”; modified_base 1 /) | 0.234 |  | 
AD01656 (antisense TUUCAUGAAAUCGUUACGUTT; sense ACGUAACGAUUUCAUGAAA; Hif2alpha RNAi agent antisense strand; modified_base 2,4,6,8,10,12,14,15,18 /mod_base = “2′-deoxy-2′-fluoro corresponding nucleoside”; modified_base 3,5,7,9,11,13,16,17,19 /mod_base = “2′-O-methyl corresponding nucleoside”; modified_base 2,21 /mod_base = “5′-phosphorothioate corresponding nucleotide”; Hif2alpha RNAi agent sense strand; modified_base 1,3,4,7,9,11,13,15,17,19 /mod_base = “2′-deoxy-2′-fluoro corresponding nucleoside”; modified_base 2,5,6,8,10,12,14,16,18 /mod_base = “2′-O-methyl corresponding nucleoside”; modified_base 2 /mod_base = “5′-phosphorothioate corresponding nucleotide) | 0.184 |  | 
AD01657 (antisense TUUCAUGAAAUCGUUACGUTT; sense ACGUAACGAUUUCAUGAAAT; Hif2alpha RNAi agent antisense strand; modified_base 2,4,6,8,10,12,14,15,18 /mod_base = “2′-deoxy-2′-fluoro corresponding nucleoside”; modified_base 3,5,7,9,11,13,16,17,19 /mod_base = “2′-O-methyl corresponding nucleoside”; modified_base 2,21 /mod_base = “5′-phosphorothioate corresponding nucleotide”; Hif2alpha RNAi agent sense strand; modified_base 1,3,4,7,9,11,13,15,17,19 /mod_base = “2′-deoxy-2′-fluoro corresponding nucleoside”; modified_base 2,5,6,8,10,12,14,16,18 /mod_base = “2′-O-methyl corresponding nucleoside”; modified_base 20 /mod_base = “3′-3′-linked nucleotide”; modified_base 1 /) | 0.256 |  | 
AD01658 (antisense TUUCAUGAAAUCGUUACGUTT; sense ACGUAACGAUUUCAUGAAA; Hif2alpha RNAi agent antisense strand; modified_base 2,4,6,8,10,12,14,15,18 /mod_base = “2′-deoxy-2′-fluoro corresponding nucleoside”; modified_base 3,5,7,9,11,13,16,17,19 /mod_base = “2′-O-methyl corresponding nucleoside”; modified_base 2,3,21 /mod_base = “5′-phosphorothioate corresponding nucleotide”; Hif2alpha RNAi agent sense strand; modified_base 1,3,4,7,9,11,13,15,17,19 /mod_base = “2′-deoxy-2′-fluoro corresponding nucleoside”; modified_base 2,5,6,8,10,12,14,16,18 /mod_base = “2′-O-methyl corresponding nucleoside”; modified_base 2 /mod_base = “5′-phosphorothioate corresponding nucleoti) | 0.138 |  | 
AD01659 (antisense TUUCAUGAAAUCGUUACGUTT; sense ACGUAACGAUUUCAUGAAAT; Hif2alpha RNAi agent antisense strand; modified_base 2,4,6,8,10,12,14,15,18 /mod_base = “2′-deoxy-2′-fluoro corresponding nucleoside”; modified_base 3,5,7,9,11,13,16,17,19 /mod_base = “2′-O-methyl corresponding nucleoside”; modified_base 2,3,21 /mod_base = “5′-phosphorothioate corresponding nucleotide”; Hif2alpha RNAi agent sense strand; modified_base 1,3,4,7,9,11,13,15,17,19 /mod_base = “2′-deoxy-2′-fluoro corresponding nucleoside”; modified_base 2,5,6,8,10,12,14,16,18 /mod_base = “2′-O-methyl corresponding nucleoside”; modified_base 20 /mod_base = “3′-3′-linked nucleotide”; modified_base 1) | 0.249 |  | 
AD01884 (antisense UUUCAUGAAAUCGUUACGUTT; sense ACGUAACGAUUUCAUGAAAT; Hif2alpha RNAi agent antisense strand; modified_base 2,4,6,8,10,14,16,18 /mod_base = “2′-deoxy-2′-fluoro corresponding nucleoside”; modified_base 1,3,5,7,9,11,12,13,15,17,19 /mod_base = “2′-O-methyl corresponding nucleoside”; modified_base 2,3,21 /mod_base = “5′-phosphorothioate corresponding nucleotide”; Hif2alpha RNAi agent sense strand; modified_base 1,3,5,7,8,9,11,13,15,17,19 /mod_base = “2′-deoxy-2′-fluoro corresponding nucleoside”; modified_base 2,4,6,10,12,14,16,18 /mod_base = “2′-O-methyl corresponding nucleoside”; modified_base 20 /mod_base = “3′-3′-linked nucleotide”; modified_base) |  | 0.091 | Relative Expression day 4 (Hif2α mRNA in kidney tumor) (RNAi trigger 50 μg, polymer 064 125 μg): 0.203; Relative Expression day 4 (Hif2α mRNA in kidney tumor) (RNAi trigger 75 μg, polymer 064 187.5 μg): 0.227
AD01885 (antisense UUUCAUGAAAUCGUUACGUTT; sense UAUACGUAACGAUUUCAUGAAAT; Hif2alpha RNAi agent antisense strand; modified_base 2,4,6,8,10,14,16,18 /mod_base = “2′-deoxy-2′-fluoro corresponding nucleoside”; modified_base 1,3,5,7,9,11,12,13,15,17,19 /mod_base = “2′-O-methyl corresponding nucleoside”; modified_base 2,3,21 /mod_base = “5′-phosphorothioate corresponding nucleotide”; Hif2alpha RNAi agent sense strand; modified_base 2 modified base = “2′-hydroxy corresponding nucleoside”; modified_base 4,6,8,10,11,12,14,16,18,20,22 /mod_base = “2′-deoxy-2′-fluoro corresponding nucleoside”; modified_base 1,3,5,7,9,13,15,17,19,21 /mod_base = “2′-O-methyl corresponding nucl) |  | 0.146 | 
AD01886 (antisense UCUAGCAACAAAACCUUAATT; sense UUAAGGUUUUGUUGCUAGAT; Hif2alpha RNAi agent antisense strand; modified_base 2,4,6,8,10,13,14,16,18 /mod_base = “2′-deoxy-2′-fluoro corresponding nucleoside”; modified_base 1,3,5,7,9,11,12,15,17,19 /mod_base = “2′-O-methyl corresponding nucleoside”; modified_base 2,3,21 /mod_base = “5′-phosphorothioate corresponding nucleotide”; Hif2alpha RNAi agent sense strand; modified_base 1,3,5,8,9,11,13,15,17,19 /mod_base = “2′-deoxy-2′-fluoro corresponding nucleoside”; modified_base 2,4,6,7,10,12,14,16,18 /mod_base = “2′-O-methyl corresponding nucleoside”; modified_base 20 /mod_base = “3′-3′-linked nucleotide”; modified_base) |  | 0.292 | 

Source: patent publication US9976141B2, “Compositions and methods for inhibiting gene expression of Hif2alpha” (Arrowhead Madison Inc., priority 2015, dated 2018)
